From PMC9024805, “Non-Effective Improvement of Absorption for Some Nanoparticle Formulations Explained by Permeability under Non-Sink Conditions” (Pharmaceutics, 2022)

Experiments:
[1] = Permeability under sink conditions (previous study / calculated for Figure 11); format: in vitro ADME; settings: not told, given in Figure 11
Description: To assess the impact of permeability under non-sink conditions, we compared it with that under sink conditions.

[2] = parameters: method as in PMID 33801447; settings: previous study ref 25; cited from earlier work
[3] = Solubility from concentrations in the donor chambers; settings: pH 6.5, 37 °C
Description: At 0, 30, 60, 120, 240 and 360 min, 100 μL of the acceptor chamber solution was withdrawn and diluted 2-fold. […] To measure the exact concentration in the donor chamber containing the nanosuspensions, the filtration method was applied according to a previous report [32]. Then, 100 μL of the filtered solution was diluted 2-fold. The sample concentration was determined by ultra-high-performance liquid chromatography (UHPLC).

[4] = parameters: method as in PMID 17694546; settings: cited from earlier work

SMILES | Papp [1] [×10⁻⁶ cm/s] | Papp under sink conditions [2] [×10⁻⁶ cm/s] | Effect of nanonization / particle size on solubility [3] | Papp using PAMPA relative to that of griseofulvin [4]
COC1=CC(=O)C[C@@H](C)[C@]12Oc1c(Cl)c(OC)cc(OC)c1C2=O [griseofulvin] | 250 | 247 | not improved by nanonization | 
CC(=O)[C@H]1CC[C@H]2[C@@H]3CCC4=CC(=O)CC[C@]4(C)[C@H]3CC[C@]12C [progesterone] |  |  |  | 2–3 times
